pKd: −log10 of the molar value. ≈ marks a conversion by molar mass, not a printed value. Calls of active or inactive are those of the source. The rule behind the calls is not given here. Residues, ends and D or L forms follow the SMILES beside them. *: point of attachment. βGlc = OC[C@H]1O[C@@H](*)[C@H](O)[C@@H](O)[C@@H]1O; βGal = OC[C@H]1O[C@@H](*)[C@H](O)[C@@H](O)[C@H]1O; Palmitoyl = CCCCCCCCCCCCCCCC(=O)*; Lauroyl = CCCCCCCCCCCC(=O)*; Octanoyl = CCCCCCCC(=O)*
How the values were obtained:
[1] = target: T1, PA-I galactophilic lectin (Pseudomonas aeruginosa (strain ATCC 15692 / PAO1 / 1C / PRS 101 / LMG12228)) (UniProt Q05097); assay: Binding affinity to Pseudomonas aeruginosa LecA assessed as change in entropy
T1 sequence (whole entry): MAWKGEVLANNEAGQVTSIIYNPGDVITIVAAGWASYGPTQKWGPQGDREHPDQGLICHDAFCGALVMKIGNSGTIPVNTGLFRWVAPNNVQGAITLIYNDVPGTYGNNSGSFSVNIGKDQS

[2] = target: T1, PA-I galactophilic lectin (Pseudomonas aeruginosa (strain ATCC 15692 / PAO1 / 1C / PRS 101 / LMG12228)); assay: Binding affinity to Pseudomonas aeruginosa LecA assessed as change in enthalpy
Pseudomonas aeruginosa [3] = assay: Antibiofilm activity against Pseudomonas aeruginosa PAO1; format: functional, organism-based
Pseudomonas aeruginosa [4] = assay: Antibiofilm activity against Pseudomonas aeruginosa PAO1 assessed as inhibition of biofilm formation at 32 uM incubated for 24 hrs by microplate reader analysis relative to control; format: functional
Pseudomonas aeruginosa [5] = assay: Antibiofilm activity against Pseudomonas aeruginosa PAO1 assessed as removal of mature biofilm at 32 uM incubated for 4 hrs at relative to control; format: functional
Pseudomonas aeruginosa [6] = assay: Antibacterial activity against Pseudomonas aeruginosa assessed as bacterial growth inhibition; format: functional
Pseudomonas aeruginosa [7] = assay: Antibiofilm activity against Pseudomonas aeruginosa PAO1 assessed as inhibition of biofilm formation at 8 to 32 uM incubated for 24 hrs by microplate reader analysis relative to control; format: functional; details: dose 8-32 µM, read-out: MIC
Staphylococcus aureus [8] = assay: Antibacterial activity against Staphylococcus aureus assessed as bacterial growth inhibition; format: functional
Escherichia coli = assay: Antibacterial activity against Escherichia coli assessed as bacterial growth inhibition; format: functional
[9] = target: T2, PA-I galactophilic lectin (Pseudomonas aeruginosa (strain ATCC 15692 / PAO1 / 1C / PRS 101 / LMG12228), UniProt Q05097); assay: Binding affinity to Pseudomonas aeruginosa LecA assessed as dissociation constant
T2 sequence (Q05097 whole entry): T1 sequence (whole entry)

Staphylococcus aureus [10] = assay: Antibacterial activity against methicillin-resistant Staphylococcus aureus assessed as bacterial growth inhibition; format: functional
Cell membrane = assay: Induction of outer membrane permeabilization in Pseudomonas aeruginosa PAO1 assessed as increase in NPN uptake at 8 to 32 uM by NPN-dye based fluorescence analysis; details: dose 8-32 µM
[11] = Hemolytic activity in sheep RBC assessed as hemolysis at 128 uM; format: toxicity, cell-based, Ovis aries; details: erythrocyte
Pseudomonas aeruginosa [12] = assay: Antibiofilm activity against Pseudomonas aeruginosa PAO1 assessed as inhibition of biofilm formation ratio at MIC concentration incubated for 24 hrs by microplate reader analysis relative to control; format: functional; design: scale not given: the % may be the effect or the level left
Pseudomonas aeruginosa [13] = assay: Antibiofilm activity against Pseudomonas aeruginosa PAO1 assessed as inhibition of biofilm formation ratio at 2 times of MIC concentration incubated for 24 hrs by microplate reader analysis relative to control; format: functional; design: scale not given: the % may be the effect or the level left
[14] = Hemolytic activity in sheep RBC assessed as hemolysis; format: toxicity, cell-based, Ovis aries; details: erythrocyte
Pseudomonas aeruginosa [15] = assay: Antibiofilm activity against Pseudomonas aeruginosa PAO1 assessed as increase in biofilm inhibition ratio at 2 times of MIC concentration incubated for 24 hrs by microplate reader analysis relative to control; format: functional; design: scale not given: the % may be the effect or the level left
Pseudomonas aeruginosa [16] = assay: Antibiofilm activity against Pseudomonas aeruginosa PAO1 assessed as increase in biofilm inhibition ratio at half MIC concentration incubated for 24 hrs by microplate reader analysis relative to control; format: functional; design: scale not given: the % may be the effect or the level left
Pseudomonas aeruginosa [17] = assay: Antibiofilm activity against Pseudomonas aeruginosa PAO1 assessed as increase in biofilm inhibition ratio at MIC concentration incubated for 24 hrs by microplate reader analysis relative to control; format: functional; design: scale not given: the % may be the effect or the level left

Molecule | deltaS [1] [J/mol/K] | deltaH [2] [kcal/mol] | Activity (Pseudomonas aeruginosa [3]) | MIC (Pseudomonas aeruginosa [4]) [µM] | Activity (Pseudomonas aeruginosa [5]) [%] | MIC (Pseudomonas aeruginosa [6]) [µM] | Minimum biofilm inhibitory concentration (Pseudomonas aeruginosa [7]) [µM] | MIC (Staphylococcus aureus [8]) [µM] | MIC (Escherichia coli) [µM] | pKd [9] | MIC (Staphylococcus aureus [10]) [µM] | Activity (Cell membrane) | Activity [11] | Activity (Pseudomonas aeruginosa [12]) [%] | Activity (Pseudomonas aeruginosa [13]) [%] | Activity [14] | Activity (Pseudomonas aeruginosa [15]) [%] | Activity (Pseudomonas aeruginosa [16]) [%] | Activity (Pseudomonas aeruginosa [17]) [%]
CC[C@H](C)[C@H](NC(=O)CN)C(=O)N[C@H](C(=O)N[C@@H](CCCCN)C(=O)N[C@@H](CCCCN)C(=O)N[C@H](C(=O)N[C@H](C(=O)N[C@@H](CCCCN)C(=O)N[C@@H](CCCCN)C(=O)N[C@H](C(=O)N[C@H](C(=O)N[C@@H](CCCCN)C(=O)N[C@@H](CCCCN)C(=O)N[C@H](C(=O)N[C@@H](CO[C@@H]1O[C@H](CO)[C@H](O)[C@H](O)[C@H]1O)C(N)=O)[C@@H](C)CC)[C@@H](C)CC)[C@@H](C)CC)[C@@H](C)CC)[C@@H](C)CC)[C@@H](C)CC (H-GIIKKIIKKIIKKIS(βGal)-NH2) | -246 | -23.9 | Active | 32 (≈ 60.3 µg/mL) | 62 | 16 (≈ 30.2 µg/mL) | 16 | 16 (≈ 30.2 µg/mL) | 32 (≈ 60.3 µg/mL) | 4.68 | 32 (≈ 60.3 µg/mL) | Active |  |  |  |  |  |  | 
CC[C@H](C)[C@H](NC(=O)CN)C(=O)N[C@H](C(=O)N[C@@H](CCCCN)C(=O)N[C@@H](CCCCN)C(=O)N[C@H](C(=O)N[C@H](C(=O)N[C@@H](CCCCN)C(=O)N[C@@H](CCCCN)C(=O)N[C@H](C(=O)N[C@H](C(=O)N[C@@H](CCCCN)C(=O)N[C@@H](CCCCN)C(=O)N[C@H](C(=O)N[C@@H](CO[C@@H]1O[C@H](CO)[C@@H](O)[C@H](O)[C@H]1O)C(N)=O)[C@@H](C)CC)[C@@H](C)CC)[C@@H](C)CC)[C@@H](C)CC)[C@@H](C)CC)[C@@H](C)CC (H-GIIKKIIKKIIKKIS(βGlc)-NH2) |  |  | Active |  | 71 | 16 (≈ 30.2 µg/mL) | 16 | 16 (≈ 30.2 µg/mL) | 32 (≈ 60.3 µg/mL) |  | 32 (≈ 60.3 µg/mL) | Active |  |  |  |  |  |  | 
CCCCCCCCCCCC(=O)NCC(=O)N[C@H](C(=O)N[C@H](C(=O)N[C@@H](CCCCN)C(=O)N[C@@H](CCCCN)C(=O)N[C@H](C(=O)N[C@H](C(=O)N[C@@H](CCCCN)C(=O)N[C@@H](CCCCN)C(=O)N[C@H](C(=O)N[C@H](C(=O)N[C@@H](CCCCN)C(=O)N[C@@H](CCCCN)C(=O)N[C@H](C(N)=O)[C@@H](C)CC)[C@@H](C)CC)[C@@H](C)CC)[C@@H](C)CC)[C@@H](C)CC)[C@@H](C)CC)[C@@H](C)CC (Lauroyl-GIIKKIIKKIIKKI-NH2) |  |  |  |  |  | 16 (≈ 29.1 µg/mL) | 16 | 4 (≈ 7.27 µg/mL) | 12 (≈ 21.8 µg/mL) |  | 12 (≈ 21.8 µg/mL) | Active |  |  |  |  |  |  | 
CCCCCCCC(=O)NCC(=O)N[C@H](C(=O)N[C@H](C(=O)N[C@@H](CCCCN)C(=O)N[C@@H](CCCCN)C(=O)N[C@H](C(=O)N[C@H](C(=O)N[C@@H](CCCCN)C(=O)N[C@@H](CCCCN)C(=O)N[C@H](C(=O)N[C@H](C(=O)N[C@@H](CCCCN)C(=O)N[C@@H](CCCCN)C(=O)N[C@H](C(N)=O)[C@@H](C)CC)[C@@H](C)CC)[C@@H](C)CC)[C@@H](C)CC)[C@@H](C)CC)[C@@H](C)CC)[C@@H](C)CC (Octanoyl-GIIKKIIKKIIKKI-NH2) |  |  |  |  |  | 16 (≈ 28.2 µg/mL) | 16 | 4 (≈ 7.05 µg/mL) | 4 (≈ 7.05 µg/mL) |  | 4 (≈ 7.05 µg/mL) | Active | Toxic |  |  |  |  |  | 
CCCCCCCC(=O)NCC(=O)N[C@H](C(=O)N[C@H](C(=O)N[C@@H](CCCCN)C(=O)N[C@@H](CCCCN)C(=O)N[C@H](C(=O)N[C@H](C(=O)N[C@@H](CCCCN)C(=O)N[C@@H](CCCCN)C(=O)N[C@H](C(=O)N[C@H](C(=O)N[C@@H](CCCCN)C(=O)N[C@@H](CCCCN)C(=O)N[C@H](C(=O)N[C@@H](CO[C@@H]1O[C@H](CO)[C@H](O)[C@H](O)[C@H]1O)C(N)=O)[C@@H](C)CC)[C@@H](C)CC)[C@@H](C)CC)[C@@H](C)CC)[C@@H](C)CC)[C@@H](C)CC)[C@@H](C)CC (Octanoyl-GIIKKIIKKIIKKIS(βGal)-NH2) | 29.4 | -4.53 | Active |  |  | 16 (≈ 32.2 µg/mL) | 16 | 4 (≈ 8.04 µg/mL) | 4 (≈ 8.04 µg/mL) | 4.85 | 4 (≈ 8.04 µg/mL) | Active |  | 71 | 71 | Dose-Dependent Effect |  |  | 
CCCCCCCC(=O)NCC(=O)N[C@H](C(=O)N[C@H](C(=O)N[C@@H](CCCCN)C(=O)N[C@@H](CCCCN)C(=O)N[C@H](C(=O)N[C@H](C(=O)N[C@@H](CCCCN)C(=O)N[C@@H](CCCCN)C(=O)N[C@H](C(=O)N[C@@H](CO[C@@H]1O[C@H](CO)[C@H](O)[C@H](O)[C@H]1O)C(N)=O)[C@@H](C)CC)[C@@H](C)CC)[C@@H](C)CC)[C@@H](C)CC)[C@@H](C)CC (Octanoyl-GIIKKIIKKIS(βGal)-NH2) | -4.53 | -6.53 |  |  |  | 16 (≈ 24.4 µg/mL) | 16 | 4 (≈ 6.11 µg/mL) | 12 (≈ 18.3 µg/mL) | 4.55 | 4 (≈ 6.11 µg/mL) | Active |  |  |  |  |  |  | 
CCCCCCCCCCCCCCCC(=O)NCC(=O)N[C@H](C(=O)N[C@H](C(=O)N[C@@H](CCCCN)C(=O)N[C@@H](CCCCN)C(=O)N[C@H](C(=O)N[C@H](C(=O)N[C@@H](CCCCN)C(=O)N[C@@H](CCCCN)C(=O)N[C@H](C(=O)N[C@H](C(=O)N[C@@H](CCCCN)C(=O)N[C@@H](CCCCN)C(=O)N[C@H](C(N)=O)[C@@H](C)CC)[C@@H](C)CC)[C@@H](C)CC)[C@@H](C)CC)[C@@H](C)CC)[C@@H](C)CC)[C@@H](C)CC (Palmitoyl-GIIKKIIKKIIKKI-NH2) |  |  |  |  |  | 32 (≈ 60 µg/mL) | 16 | 16 (≈ 30 µg/mL) | 32 (≈ 60 µg/mL) |  | 32 (≈ 60 µg/mL) | Active |  |  |  |  |  |  | 
Ac-GIIKKIIKKIIKKI-NH2 |  |  |  |  |  | 32 | 16 | 4 | 12 |  | 12 | Active |  |  |  |  |  |  | 
H-GIIKKIIKKIIKKI-NH2 |  |  |  |  |  | 16 | 16 | 4 | 8 |  | 16 | Active |  |  |  |  | 59 | 45 | 46
